The values that follow come from BindingDB's records for patent US20250122174 (Shenzhen Yuanli Shenwan Innovative Medicine, 2025).

The structures appear in SMILES notation.

This assay has as its target Mitogen-activated protein kinase kinase kinase kinase 1 (Homo sapiens, UniProt Q92918). In words: HPK1 Inhibition Assay. The protocol:
A stock solution of 10 mM test compound was prepared in DMSO. The compound was prepared by 5-fold and 10-point serial dilutions with HPK1 kinase assay buffer. The HPK1 kinase assay buffer contained 40 mM Tris, pH 7.5; 20 mM MgCl2, 0.1 mg/ml BSA, and 50 μM DTT. 7.5 ng/μl of Active HPK1 (Promega, V4098) and 0.1 μg/ml MBP substrate protein were added to the reaction system. The final concentration of ATP in the HPK1 kinase reaction system was 10 μM. Serial diluted compounds were transferred to the reaction system and incubated at room temperature for 1 hr. 5 μL of ADP-Glo™ Reagent (Promega, V9101) was added and incubated for 40 min to stop the kinase reaction and deplete the unconsumed ATP. […] The luminescence was measured with a plate-reading luminometer.

Mitogen-activated protein kinase kinase kinase kinase 1, sequence (Q92918 whole entry): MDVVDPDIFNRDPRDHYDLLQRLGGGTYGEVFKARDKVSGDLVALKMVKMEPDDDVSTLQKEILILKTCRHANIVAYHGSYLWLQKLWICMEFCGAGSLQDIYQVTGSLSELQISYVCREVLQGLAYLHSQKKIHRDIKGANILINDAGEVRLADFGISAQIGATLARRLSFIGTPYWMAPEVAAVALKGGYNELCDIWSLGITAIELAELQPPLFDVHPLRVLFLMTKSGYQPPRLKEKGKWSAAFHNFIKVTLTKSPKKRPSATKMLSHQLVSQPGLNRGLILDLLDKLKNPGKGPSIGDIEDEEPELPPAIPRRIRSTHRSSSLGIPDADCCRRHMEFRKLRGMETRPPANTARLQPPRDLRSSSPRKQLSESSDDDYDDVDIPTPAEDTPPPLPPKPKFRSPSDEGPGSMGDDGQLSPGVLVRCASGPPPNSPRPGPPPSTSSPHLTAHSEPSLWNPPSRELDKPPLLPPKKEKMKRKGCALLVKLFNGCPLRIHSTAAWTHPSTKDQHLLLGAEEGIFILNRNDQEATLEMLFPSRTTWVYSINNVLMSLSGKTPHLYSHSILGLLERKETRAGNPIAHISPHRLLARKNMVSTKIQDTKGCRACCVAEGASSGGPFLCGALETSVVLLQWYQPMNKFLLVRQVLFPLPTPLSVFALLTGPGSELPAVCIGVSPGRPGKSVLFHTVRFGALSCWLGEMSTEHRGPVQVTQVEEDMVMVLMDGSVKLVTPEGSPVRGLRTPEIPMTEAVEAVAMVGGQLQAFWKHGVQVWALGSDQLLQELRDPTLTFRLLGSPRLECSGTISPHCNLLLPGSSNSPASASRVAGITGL

Regarding `Cn1c(-c2ccncc2F)nc2c(N3CCC[C@H]3CN)c(NC(=O)c3ccnn(-c4c(F)cccc4F)c3=O)ccc21` [US20250122174, Example 43], the half-inhibitory concentration (IC50) is below 100 nM.
The same measure for `Cc1nc2c(N3CCNC(=O)C3)c(NC(=O)c3ccc(=O)n(-c4c(F)cccc4F)n3)ccc2n1C` [US20250122174, Example 83]: below 100 nM; for `CC(C)n1ncc2c(N3CCC(N)CC3)c(NC(=O)c3ccc(=O)n(-c4c(F)cccc4F)n3)ccc21` [US20250122174, Example 184]: below 100 nM; for `Cc1nc2c(N3CC[C@@H](N)C3)c(NC(=O)c3ccc(=O)n(-c4c(Cl)cccc4Cl)n3)ccc2n1C` [US20250122174, Example 108]: below 100 nM.
The value for `CC(C)c1nc2c(N3CC[C@H]4NCC[C@H]43)c(NC(=O)c3ccc(=O)n(-c4c(F)cccc4F)n3)ccc2n1C` [US20250122174, Example 135] was below 100 nM; that for `Cc1nc2c(N3C[C@@H]4C[C@H]3CN4)c(NC(=O)c3ccc(=O)n(-c4c(F)cccc4F)n3)ccc2n1C` [US20250122174, Example 75] was below 100 nM.

The term IC50 denotes the concentration that inhibits the measured activity by half. A lower IC50 goes with greater potency.
